Measured values from ChEMBL document CHEMBL1143694, “Fawcettimine-related alkaloids from Lycopodium serratum” (J Nat Prod, 2007).
Active and inactive are the calls of the source. The calls are words filed in the database; no cut-off is given here.

Target: Acetylcholinesterase (Homo sapiens, UniProt P22303)
Assay: Inhibition of AChE by Ellman method

Sequence of Acetylcholinesterase (P22303 whole entry): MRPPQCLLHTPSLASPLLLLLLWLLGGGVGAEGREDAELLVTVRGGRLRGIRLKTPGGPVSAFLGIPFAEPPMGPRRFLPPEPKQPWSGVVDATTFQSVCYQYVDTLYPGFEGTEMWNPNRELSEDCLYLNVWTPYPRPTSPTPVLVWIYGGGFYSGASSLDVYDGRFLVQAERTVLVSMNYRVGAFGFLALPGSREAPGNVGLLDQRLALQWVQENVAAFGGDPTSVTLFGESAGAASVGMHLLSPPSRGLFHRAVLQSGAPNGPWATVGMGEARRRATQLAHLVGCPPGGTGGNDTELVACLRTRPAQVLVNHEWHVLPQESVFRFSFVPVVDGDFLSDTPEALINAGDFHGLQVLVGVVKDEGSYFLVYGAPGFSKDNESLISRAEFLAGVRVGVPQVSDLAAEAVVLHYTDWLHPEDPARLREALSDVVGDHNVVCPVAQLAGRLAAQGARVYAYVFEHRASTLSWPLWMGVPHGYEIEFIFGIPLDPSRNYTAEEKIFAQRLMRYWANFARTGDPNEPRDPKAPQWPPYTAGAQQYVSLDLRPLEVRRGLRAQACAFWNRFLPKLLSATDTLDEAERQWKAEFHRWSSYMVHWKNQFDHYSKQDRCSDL

SMILES	Activity	IC50 [µM]
C[C@H]1C[C@]2(O)N3CC=CC24[C@H](CCC3)C(=O)C[C@@H]4[C@H]1O (some centres undefined)	inactive	
C[C@H]1C=C2N3CC[C@@H](O)C24[C@H](CC(=O)[C@H]4C[C@H](O)C3)C1 (some centres undefined)		27.9
C[C@H]1C=C2N3CCC[C@@H]4C(=O)C[C@H](C1)C24[C@H](O)CC3 (some centres undefined)	inactive	
CC1=C[C@H]2[C@H](O)C(=O)[C@H]3CCCN4CCC[C@H]2[C@]34C1		16.7
